From patent US4732983A, “Pyschotropic polycyclic imides” (American Home Products Corporation, priority 1987, dated 1988)
pKi: −log10 of the molar value. Where two headings read alike, the source gives them in different places.

Tests used:
[1] = test system: male CD rats (Charles River); test: Conditioned avoidance, shelf-jump response; assay type: in vivo, rat; details: 40 mg/kg i.p., single dose
Method: The rat can avoid the electric shock by jumping to an exposed shelf (shelf-jump response). A response during the initial warning tone is considered an avoidance response, while a response during shock delivery is considered as escape response. […] The compounds of this invention were tested at a single dose (40 mg./kg. i.p.) in this procedure and were rated relative to their inhibition of conditioned avoidance responding.

[2] = test system: rats; test: Conditioned avoidance, discrete trial (lever press substituted for shelf-jump), Avoidance Block; assay type: in vivo, rat; details: for Conditioned Avoidance Discrete Trial AB50 (Avoidance Block): p.o.; for ED50: Rattus norvegicus, po, read-out: Conditioned Avoidance Discrete Trial AB50 (Avoidance Block)
[3] = test system: CF-1 mice (Charles River); test: Antagonism of apomorphine-induced stereotyped behavior and climbing; assay type: in vivo, mouse; details: for Apomorphine Antagonism ED50, climbing / Apomorphine Antagonism ED50, stereotypy: p.o.; for Apomorphine Antagonism ED50, climbing / Apomorphine Antagonism ED50, stereotypy / ED50: apomorphine 1 mg/kg s.c.; for ratio of the ED50 for stereotyped behavior to the ED50 for climbing: apomorphine-induced, standard antipsychotic drugs; for ED50: Mus musculus, po
Method: Readings are repeated every five minutes during a thirty minute test session. […] The ratio of the ED50 for stereotyped behavior to the ED50 for climbing is calculated.

[4] = molecular target: T1, D-2 dopamine receptor (Rattus norvegicus, UniProt P61169); test: [3H]spiroperidol binding inhibition, homogenized limbic brain tissue
T1 construct: homogenized limbic brain tissue is incubated with; from tissue; host or cells: homogenized limbic brain tissue

[5] = molecular target: T2, 5-HT1A serotonin receptor (Rattus norvegicus, UniProt P19327); test: Inhibition of [3H]8-OH DPAT binding
T2 construct: 44: 1685-1696, 1985; from tissue
T2 sequence (P19327 1-422): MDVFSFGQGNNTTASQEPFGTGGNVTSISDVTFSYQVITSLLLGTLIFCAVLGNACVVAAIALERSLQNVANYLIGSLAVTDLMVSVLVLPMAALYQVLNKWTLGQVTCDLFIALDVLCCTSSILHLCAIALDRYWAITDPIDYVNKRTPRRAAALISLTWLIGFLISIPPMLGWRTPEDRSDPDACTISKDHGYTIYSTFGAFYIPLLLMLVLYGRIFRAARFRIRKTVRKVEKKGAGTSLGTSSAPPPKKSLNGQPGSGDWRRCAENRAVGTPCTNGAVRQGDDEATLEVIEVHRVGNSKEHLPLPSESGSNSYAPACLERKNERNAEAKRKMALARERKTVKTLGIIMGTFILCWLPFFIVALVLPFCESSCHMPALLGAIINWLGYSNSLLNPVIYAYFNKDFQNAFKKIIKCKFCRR

[6] = read-out: Apomorphine Antagonism ED50, climbing

T1 sequence (P61169 whole entry): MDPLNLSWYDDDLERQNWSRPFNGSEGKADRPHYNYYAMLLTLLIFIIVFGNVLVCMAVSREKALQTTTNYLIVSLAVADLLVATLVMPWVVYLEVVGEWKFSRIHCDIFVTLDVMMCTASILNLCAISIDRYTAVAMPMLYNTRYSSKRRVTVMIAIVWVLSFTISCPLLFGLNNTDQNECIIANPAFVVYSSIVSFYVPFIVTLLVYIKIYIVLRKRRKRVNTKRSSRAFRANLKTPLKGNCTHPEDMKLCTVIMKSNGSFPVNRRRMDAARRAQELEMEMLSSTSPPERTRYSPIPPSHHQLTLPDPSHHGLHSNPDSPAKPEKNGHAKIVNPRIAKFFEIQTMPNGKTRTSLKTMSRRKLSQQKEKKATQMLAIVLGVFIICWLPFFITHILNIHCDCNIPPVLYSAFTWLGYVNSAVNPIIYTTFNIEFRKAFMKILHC

Row | Compound | pKi [5] | inhibition at 1 µM [4] [%] | Conditioned Avoidance Shelf-Jump (inhibition of conditioned avoidance responding) [1] | Conditioned Avoidance Discrete Trial AB50 (Avoidance Block) [2] | Apomorphine Antagonism ED50, climbing [3] | Apomorphine Antagonism ED50, stereotypy [3] | also measured
1 | Exo-2-[4-[4-(6-chloro-2-pyrazinyl)-1-piperazinyl]butyl]octahydro-4,57-metheno-1H-pentaleno[1,2-c]pyrrole-1,3-(2H)-dione [Example 4] | – | – | > 20% | 56.16 mg/kg | inactive | inactive | [3H] Spiroperidol Binding Inhibition, % at 1 μM [4]: 54%; Inhibition of [3H] 8-OH DPAT Binding, % at 1 μM ([5]; 1 μM): 76%
2 | O=C1CC2(CCCC2)CC(=O)N1CCCCN1CCN(c2ncccn2)CC1 [buspirone, reference compound] | – | – | – | – | – | – | affinity for 5-HT1A serotonin receptor (in words) ([5]; displacement of [3H]8-OH DPAT): potent affinity
3 | CSc1ccc2c(c1)N(CCC1CCCCN1C)c1ccccc1S2 (stereo not shown) [thioridazine, reference compound] | – | – | – | – | – | – | ratio of the ED50 for stereotyped behavior to the ED50 for climbing [3]: 1.83
4 | O=C1C2C3CC4C2C4C3C(=O)N1CCCCN1CCN(c2cncc(Cl)n2)CC1 [Example 6, 2-[4-[4-(6-Chloro-2-pyrazinyl)-1-piperazinyl]butyl]hexahydro-4,6,7-metheno-1H-2-pyridine-1,3-(2H)-dione] | 7.29 | 29 | ~ 80% | active | – | – | ED50 [3, 6]: 1.74 mg/kg; ED50 ([3]; read-out: Apomorphine Antagonism ED50, stereotypy): 40.5 mg/kg
5 | CN(C)CCCN1c2ccccc2Sc2ccc(Cl)cc21 [chlorpromazine, reference compound] | – | – | – | – | – | – | ratio of the ED50 for stereotyped behavior to the ED50 for climbing [3]: 1.51
6 | O=C(CCCN1CCC(O)(c2ccc(Cl)cc2)CC1)c1ccc(F)cc1 [haloperidol, reference compound] | – | – | – | – | – | – | ratio of the ED50 for stereotyped behavior to the ED50 for climbing [3]: 1.00
7 | O=C1C2C(C(=O)N1CCCCN1CCN(c3ncccn3)CC1)C1C3CC4C(C32)C41 (stereo not drawn) [Example 1, Endo-2-[4-[4-(2-pyrimidinyl)-1-piperazinyl]butyl]octahydro-4,5,7-metheno-1H-pentaleno[1,2-c]pyrrole-1,3(2H)-dione] | 7.89 | – | ~ 80% | – | – | inactive | ED50 [2]: 55.7 mg/kg; ED50 [3, 6]: 17 mg/kg; [3H] Spiroperidol Binding Inhibition, % at 1 μM ([4]; 1 µM): 76%

Further lines, with some results ahead:

Row | pKi [5] | inhibition at 1 µM [4] [%] | Compound | Conditioned Avoidance Shelf-Jump (inhibition of conditioned avoidance responding) [1] | Conditioned Avoidance Discrete Trial AB50 (Avoidance Block) [2] | Apomorphine Antagonism ED50, climbing [3] | Apomorphine Antagonism ED50, stereotypy [3] | also measured
8 | 7.40 | – | O=C1C2C(C(=O)N1CCCCN1CCN(c3ncccn3)CC1)C1C3CC4C(C32)C41 (stereo not drawn) [Example 2, Exo-2-[4-[4-(2-pyrimidinyl)-1-piperazinyl]butyl]octahydro-4,5,7-metheno-1H-pentaleno[1,2-c]pyrrole-1,3(2H)-dione] | > 20% | active | 15.61 mg/kg | inactive | [3H] Spiroperidol Binding Inhibition, % at 1 μM ([4]; 1 µM): 0%
9 | 7.80 | 51 | O=C1C2C3CC4C2C4C3C(=O)N1CCCCN1CCN(c2ncccn2)CC1 [Example 7, 2-[4-[4-(2-Pyrimidinyl)-1-piperazinyl]butyl]hexahydro-4,6,7-metheno-1H-2-pyridine-1,3-(2H)-dione] | ~ 80% | weak | inactive | inactive | –
10 | 7.38 | 44 | O=C1C2C(C(=O)N1CCCCN1CCN(c3cncc(Cl)n3)CC1)C1C3CC4C(C32)C41 (stereo not drawn) [Example 3, Endo-2-[4-[4-(6-chloro-2-pyrazinyl)-1-piperazinyl]butyl]octahydro-4,5,7-metheno-1H-pentaleno[1,2-c]pyrrole-1,3-(2H)-dione] | > 20% | – | – | inactive | ED50 [2]: 46.8 mg/kg; ED50 [3, 6]: 19 mg/kg
11 | 7.03 | 25 | O=C1C2C(C(=O)N1CCCCN1CCN(c3cnccn3)CC1)C1C3CC4C(C32)C41 (stereo not drawn) [Example 5, Endo-2-[4-[4-(2-pyrazinyl)-1-piperazinyl]butyl]octahydro-4,5,7-metheno-1H-pentaleno[1,2-c]pyrrole-1,3-(2H)-dione] | ~ 80% | inactive | inactive | inactive | –
